Like-named read-outs stand apart in the source and are kept apart here.

These results are taken from PMC4139355 (PLoS ONE, 2014).

Data set [1] deals with LS174T cells. Description: MTT cytotoxicity test in LS174T cells. The following applies: for viability of LS174T cells (in words): MTT, 24 h, LAN up to 100 µM, OME up to 250 µM. The method, then: (§1) A stably transfected gene reporter cell line AZ-GR was used for assessment of GR transcriptional activity. A transiently transfected LS174T human colon adenocarcinoma cells were used for assessment of PXR transcriptional activity. […] The reporter plasmid was transiently transfected to LS174T cells by lipofection (FuGENE 6) with 300 ng/well of p3A4-luc reporter in 24-well plates. Cells were incubated for 24 h with tested compounds and/or vehicle (DMSO; 0.1% v/v), in the presence or absence of RIF (10 µM; LS174T cells) or DEX (100 nM; AZ-GR cells). After the treatments, cells were lysed and luciferase activity was measured. In parallel, cell viability was determined by conventional MTT test.
(§2) Gene reporter assays were performed in two different experimental layouts.
(§3) Treatments were performed in triplicates. Upper panels: MTT test was performed and absorbance was measured at 540 nm. The data are the mean from experiments from three consecutive passages of cells and are expressed as a percentage of viability of control cells. The values of IC50 were calculated and are indicated in a figure. […] The data are the mean from experiments from four consecutive passages of cells and are expressed as a percentage of maximal induction attained by RIF. […] The data are the mean from experiments from four consecutive passages of cells and are expressed as a fold induction of luciferase activity over control cells.
On the technique in general: Tetrazolium assays rely on reduction of a dye to a coloured formazan, in cell work by metabolically active cells.

The subject of data set [2] is AZ-GR cells. Description: MTT cytotoxicity test in AZ-GR cells. As to the method: as §1
as §3, with “Model activator of GR was dexamethasone (DEX; 0.1 µM). Treatments” for “Treatments”

For data set [3], the system named is CYP3A4 protein in HepG2 cells. Description: CYP3A4 protein expression (Western blot) in HepG2 cells. The following applies: 48 h. The method, then: Total protein extracts were prepared as described elsewhere. SDS–PAGE gels (10%) were run on a BioRad apparatus according to the general procedure followed by the protein transfer onto PVDF membrane. The membrane was saturated with 5% non-fat dried milk for 1 h at room temperature. […] Chemiluminescent detection was performed using horseradish peroxidase-conjugated secondary antibodies (Santa Cruz Biotechnology) and Western blotting Luminol kit (Santa Cruz Biotechnology). The density of bands was measured by densitometry.
Density of bands was quantified by densitometry.

Data set [4] concerns the target T1, glucocorticoid receptor GR (Homo sapiens, UniProt P04150).
T1 sequence (P04150 1-777): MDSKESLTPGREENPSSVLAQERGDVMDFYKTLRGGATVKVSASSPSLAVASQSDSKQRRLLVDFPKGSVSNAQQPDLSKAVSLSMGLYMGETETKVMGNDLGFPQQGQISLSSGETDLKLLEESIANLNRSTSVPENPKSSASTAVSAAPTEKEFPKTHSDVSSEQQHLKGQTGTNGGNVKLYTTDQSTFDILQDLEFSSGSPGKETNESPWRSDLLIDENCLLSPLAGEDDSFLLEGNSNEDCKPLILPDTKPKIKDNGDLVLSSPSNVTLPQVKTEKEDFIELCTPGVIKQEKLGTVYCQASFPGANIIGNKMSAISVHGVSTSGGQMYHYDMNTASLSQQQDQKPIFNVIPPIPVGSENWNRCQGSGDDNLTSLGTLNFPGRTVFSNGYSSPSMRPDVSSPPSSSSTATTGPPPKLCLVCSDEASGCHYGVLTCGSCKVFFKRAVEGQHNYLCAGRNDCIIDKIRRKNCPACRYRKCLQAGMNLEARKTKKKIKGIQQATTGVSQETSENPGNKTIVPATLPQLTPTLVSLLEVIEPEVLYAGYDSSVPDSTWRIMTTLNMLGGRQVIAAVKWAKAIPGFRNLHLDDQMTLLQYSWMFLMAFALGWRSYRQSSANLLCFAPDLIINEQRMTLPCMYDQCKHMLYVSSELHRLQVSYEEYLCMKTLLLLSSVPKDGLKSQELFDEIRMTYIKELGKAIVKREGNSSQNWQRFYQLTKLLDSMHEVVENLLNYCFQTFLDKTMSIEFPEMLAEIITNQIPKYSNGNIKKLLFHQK
As to conditions: AZ-GR cells, 24 h, agonist mode. The method, then:
as §1
as §3, with “Model activator of GR was dexamethasone (DEX; 0.1 µM). Treatments” for “Treatments”

The test system of data set [5] is CYP3A4 mRNA in primary human hepatocytes. Further details: method as in PMID 12695340. The following applies: 100 µM–200 µM OME; cited from earlier work.
In data set [6] the test system is CYP3A4-mediated luciferase activity in HepG2 cells. Details: method as in PMID 12235278, PMID 20832446. As to conditions: HepG2 cells reporter gene assay; cited from earlier work. (Reporter assays use an easily measured gene product as a stand-in for the process of interest.)
Data set [7] can be described thus: MTT cytotoxicity test in LS174T cells. As to conditions: human, LS174T cells. The method, then: as §1, §2, §3
Data set [8] can be described thus: MTT cytotoxicity test in AZ-GR cells. The following applies: human, AZ-GR cells (stably transfected GR gene reporter cell line), cytotoxicity in AZ-GR cells IC50, MTT, 24 h. The method, then: as §1
as §3, with “Model activator of GR was dexamethasone (DEX; 0.1 µM). Treatments” for “Treatments”

The target in data set [9] is T1, glucocorticoid receptor GR. Kind of data set: GR gene reporter assay in AZ-GR cells, antagonist mode with dexamethasone. It is filed as cell-based. As to conditions: in the presence of DEX 0.1 µM, 24 h, read-out: GR activation, antagonist mode IC50. As to the method:
as §1
as §3, with “Model activator of GR was dexamethasone (DEX; 0.1 µM). Treatments” for “Treatments”

For data set [10], the target named is T2, pregnane X receptor PXR (Homo sapiens, UniProt O75469).
T2 sequence (O75469 1-434): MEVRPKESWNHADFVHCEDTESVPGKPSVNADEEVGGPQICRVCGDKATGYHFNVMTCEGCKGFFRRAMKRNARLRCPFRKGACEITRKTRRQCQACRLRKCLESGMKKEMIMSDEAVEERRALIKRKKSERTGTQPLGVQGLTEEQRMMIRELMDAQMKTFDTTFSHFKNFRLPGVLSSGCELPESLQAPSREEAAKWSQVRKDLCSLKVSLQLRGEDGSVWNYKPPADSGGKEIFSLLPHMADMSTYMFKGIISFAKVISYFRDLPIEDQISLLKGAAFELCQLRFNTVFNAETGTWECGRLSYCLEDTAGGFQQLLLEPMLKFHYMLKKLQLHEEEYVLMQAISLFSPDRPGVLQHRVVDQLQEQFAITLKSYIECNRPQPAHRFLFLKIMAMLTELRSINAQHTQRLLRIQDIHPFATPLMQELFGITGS
Description: PXR gene reporter assay (p3A4-luc in LS174T cells), agonist mode. The method, then: as §1, §2, §3

Take `Cc1c(OCC(F)(F)F)ccnc1C[S+]([O-])c1nc2ccccc2[nH]1` (racemic) [rac-LAN, rac-lansoprazole]: the IC50 (as a rule, the concentration at which inhibition is half-maximal) in data set [1] was more than 100 µM; in data set [2], 200 ± 19.5 µM.

`COc1ccc2[nH]c([S+]([O-])Cc3ncc(C)c(OC)c3C)nc2c1` (racemic) [rac-OME, rac-omeprazole]: the IC50 in [1] and in [2] was more than 250 µM each time.

As for `Cc1c(OCC(F)(F)F)ccnc1C[S+]([O-])c1nc2ccccc2[nH]1` (stereo not drawn) [LAN, lansoprazole], in [3], the “induction of CYP3A4 protein (in words)” value is “induced CYP3A4 protein”. In addition, the “viability of LS174T cells (in words)” value in data set [1] is on record as “did not observe significant decline in viability”. Also, the “effect on basal activity of GR (in words)” value in data set [4] is “weak effects on basal activity of GR”.

Turning to `COc1ccc2[nH]c([S+]([O-])Cc3ncc(C)c(OC)c3C)nc2c1` (stereo not drawn) [OME, omeprazole], in [1], the “viability of LS174T cells (in words)” value is recorded as “did not observe significant decline in viability”. Also, the “CYP3A4 mRNA expression induction” value in [5] was 4 fold. Also, the “induction of CYP3A4-mediated luciferase activity (in words)” value in data set [6] is “showed an induction of CYP3A4-mediated luciferase activity”.

Consider `Cc1c(OCC(F)(F)F)ccnc1C[S@@+]([O-])c1nc2ccccc2[nH]1` [R-LAN, R-lansoprazole], for which the IC50 at 24 h in data set [7] is more than 100 µM; in data set [8], 184 ± 2.9 µM. The IC50 in data set [9] was approximately 100 µM.

As for `COc1ccc2nc([S@+]([O-])Cc3ncc(C)c(OC)c3C)[nH]c2c1` [R-OME, R-omeprazole], the IC50 in data set [1] and in data set [2] was more than 250 µM each time. Moreover, the “PXR activation, agonist mode (in words)” value in data set [10] (24 h, LS174T cells with p3A4-luc) was “strongly activated PXR in concentrations 100 µM and 250 µM”. Further, in data set [10] (read-out: PXR activation, agonist mode EC50, 24 h, LS174T cells with p3A4-luc, absence of RIF), the EC50 (in general, the concentration needed to bring the measured effect to its halfway point) is 25.3 ± 3.1 µM.

For `Cc1c(OCC(F)(F)F)ccnc1C[S@+]([O-])c1nc2ccccc2[nH]1` [S-LAN, S-lansoprazole], in data set [3], the “induction of CYP3A4 protein (in words)” value is reported as “strongest effects”. For the same molecule, the IC50 in [1] is more than 100 µM; in [2] it was 200 ± 6.5 µM.

With `COc1ccc2nc([S@@+]([O-])Cc3ncc(C)c(OC)c3C)[nH]c2c1` [S-OME, S-omeprazole], the IC50 at 24 h was more than 250 µM in [7] and 214 µM in data set [8]. In data set [10], this molecule registered an EC50 of 2 ± 0.6 µM. In [10] (human, 24 h), the “PXR activation, agonist mode (in words)” value is “activated PXR in concentrations 10 µM and 100 µM with drop of activation at 250 µM”.
